Measurements from PubChem BioAssay (NCI).
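These data come from cells grown in 96-well plates and exposed to compound for 48 hours at five concentrations. At the TGI there is no net growth.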

What was measured:
Test in all cases: NCI anticancer screen, dose series, 48 h
786-0 renal = system: 786-0 renal
ACHN renal = system: ACHN renal
M14 melanoma = system: M14 melanoma
MDA-N = system: MDA-N
OVCAR-5 ovarian = system: OVCAR-5 ovarian
SF-295 CNS = system: SF-295 CNS
T-47D breast = system: T-47D breast
TK-10 renal = system: TK-10 renal
U251 CNS = system: U251 CNS

SMILES | TGI (786-0 renal) | TGI (ACHN renal) | TGI (M14 melanoma) | TGI (MDA-N) | TGI (OVCAR-5 ovarian) | TGI (SF-295 CNS) | TGI (T-47D breast) | TGI (TK-10 renal) | TGI (U251 CNS)
Cn1c(-c2ccc(N=NNc3ccc(-c4n[nH]c(=S)n4C)cc3)cc2)n[nH]c1=S | > 100 µM | 3.93 µM | > 100 µM | > 100 µM | > 100 µM | > 100 µM | 8.28 µM | > 100 µM | 28.9 µM
CC1OC(O[C@H]2CC[C@]3(C=O)[C@H]4CC[C@]5(C)[C@H](C6=CC(=O)OC6)CC[C@]5(O)[C@@H]4C=C[C@]3(O)C2)CC(O)C1O (some centres undefined) | 0.296 µM | 0.41 µM | 0.761 µM | 0.807 µM | 1.42 µM | 0.489 µM | 1.27 µM | 1.64 µM | 0.694 µM
COC(=O)c1c(C(=O)OC)c2c3ccccc3n(C)c2c2c1c1ccccc1n2C | > 100 µM | > 100 µM | > 100 µM | > 100 µM | > 100 µM | > 100 µM | > 100 µM | > 100 µM | > 100 µM
CCOC(=O)c1[nH]c2nc(SC)nc(Nc3ccccc3Cl)c2c1N | 46 µM | 46.1 µM | > 100 µM | > 100 µM | > 100 µM | 51.5 µM | 33.9 µM | 56.3 µM | 31 µM
COc1ccc(N2C(=O)/C(=C\c3cccc(Oc4ccccc4)c3)SC2c2ccccc2)cc1 (centres undefined) | > 100 µM | > 100 µM | > 100 µM | > 100 µM | > 100 µM | > 100 µM | > 100 µM | > 100 µM | > 100 µM
CCC(=O)NCCc1c2c3c(ccnc3c3ncsc13)-c1ccccc1N2 | > 55.4 µM | > 38.3 µM | > 100 µM | > 100 µM | > 100 µM | > 100 µM | > 100 µM | > 100 µM | > 79.7 µM
COCCOCCOCCOc1ccc(C(C#N)N(CCc2ccccc2)C(=O)c2cc(C(=O)N(CCc3ccccc3)C(C#N)c3ccc(OCCOCCOCCOC)cc3)cc(C(=O)N(CCc3ccccc3)C(C#N)c3ccc(OCCOCCOCCOC)cc3)c2)cc1 (centres undefined) | > 100 µM | > 100 µM | > 100 µM | > 100 µM | > 100 µM | > 100 µM | > 100 µM | > 100 µM | > 100 µM
Oc1cc(CN2COc3ccccc32)c(O)cc1CNC1CCCCC1 | 34 µM | 78.5 µM | > 100 µM | 32.2 µM | > 100 µM | > 100 µM | 64.7 µM | 38 µM | 32.5 µM
Cn1c(=O)oc2cc(Br)ccc21 | > 100 µM | > 100 µM | > 100 µM | > 100 µM | > 100 µM | > 100 µM | > 100 µM | > 100 µM | 
O=c1[nH]c(=O)n(C/C=C/CBr)nc1Br | 26.3 µM | 25.8 µM | 27.6 µM | 27.5 µM | 31.1 µM | 31.1 µM | 28.2 µM | 31.7 µM | 21.8 µM
CC(=O)Oc1c(C)c2c(c3ccccc13)OC(C)(C)C2 | 34.3 µM | 31 µM | 30.9 µM | 24.9 µM | 34.4 µM | 30.9 µM | 60 µM | 32.9 µM | 33.4 µM
COc1ccc(Nc2nc3ccccc3nc2C(=O)O)cc1OC | > 100 µM | > 100 µM | > 100 µM | > 100 µM | > 100 µM | > 100 µM | > 100 µM | > 100 µM | > 100 µM
N#Cc1c(-c2ccccc2)c(C#N)c(=O)n(C2OC(CO)C(O)C(O)C2O)c1S (centres undefined) | > 100 µM | > 100 µM | > 100 µM | > 100 µM | > 100 µM | > 100 µM | > 100 µM | > 100 µM | 
Cc1cc(C)n(C(=O)CSc2nnc(SCC(=O)n3nc(C)cc3C)s2)n1 | > 100 µM | > 100 µM | > 100 µM | > 100 µM | > 100 µM | > 100 µM | > 100 µM | > 100 µM | > 100 µM
CN(C)C(=O)C1CCN(Cc2c[nH]c3ccccc23)CC1 | > 100 µM | > 100 µM | > 100 µM | > 100 µM | > 100 µM | > 100 µM | > 100 µM | > 100 µM | > 100 µM
O=C(N/N=C(/COc1cccc(Cl)c1)N=Cc1cccnc1)c1ccncc1 | > 100 µM | > 100 µM | > 100 µM | > 100 µM | > 100 µM | > 100 µM | > 100 µM | > 100 µM | > 100 µM
Cc1cc2c(cc1C)C(=O)/C(=N/Nc1ccc(F)cc1)CCO2 | > 100 µM | > 100 µM | > 100 µM | > 100 µM | > 100 µM | > 100 µM | > 100 µM | > 100 µM | > 100 µM
CCCCCCCCCc1c(O)c(O)c(CCCCCCCCC)c(CCCCCCCCC)c1CCCCCCCCC | > 100 µM | > 100 µM | > 100 µM | > 100 µM | > 100 µM | > 100 µM | > 100 µM | > 100 µM | > 100 µM
NC(N)=NS(=O)(=O)c1ccc(NC(=O)c2ccc3[nH]c4ccccc4c(=O)c3c2)cc1 | > 100 µM | > 100 µM | > 100 µM | > 100 µM | > 100 µM | > 100 µM | > 100 µM | > 100 µM | > 100 µM
Nc1c(N2CCCCC2)c(=O)nc2[nH]/c(=C\c3ccccc3)c(=O)n12 | > 100 µM | > 100 µM | > 100 µM | > 100 µM | > 100 µM | > 100 µM | > 100 µM | > 100 µM | > 100 µM
COc1ccc2c(CCNS(=O)(=O)c3ccccc3)c(C(C)=O)[nH]c2c1 | > 100 µM | > 100 µM | > 100 µM | > 100 µM | > 100 µM | > 100 µM | > 86.8 µM | > 100 µM | > 100 µM
COc1ccc2c(c1)C(N)=C(Cc1ccncc1)C2=O | > 100 µM | > 100 µM | > 100 µM | > 100 µM |  | > 100 µM | > 100 µM | > 100 µM | > 100 µM
c1ccc(C2=Nc3cccc4cccc(c34)N2)cc1 | > 61.8 µM | 62.5 µM | > 100 µM | > 100 µM | > 100 µM | > 100 µM | 21.9 µM | > 72 µM | > 100 µM
